The term IC50 denotes the concentration that gives 50% inhibition.

Some results are limits rather than exact numbers.

Assay [1] has as its system MDA-MB-231. The assay is described as follows: 3D spheroid assay MDA-MB-231. Type of assay: cell-based. As to conditions: Homo sapiens, 96 h; MDA-MB-231, 2% Matrigel, 4 days treatment; read-out: IC50 3D spheroid cell viability. The method, then:
(§1) Breast cancer cell lines were cultured in medium with or without 2% Matrigel (Corning, NY, USA) for 3 days in each 96-well ultra-low attachment round plate to form a single spheroid at a density of 3 × 10^3 cells/well. SJP1602 was dissolved in DMSO and treated for 4 days at concentrations ranging from 200 nM to 20 μM. Cell viability was quantified according to the manufacturer’s instructions using a CellTiter-Glo 3D cell viability assay (Promega, Madison, WI, USA). Luminescence was measured using the Tecan Spark 10M.

For assay [2], the system named is HCC70. As to the kind of experiment: 3D spheroid assay HCC70. It is filed as cell-based. The note with it: Homo sapiens, 96 h; HCC70, 4 days treatment; read-out: IC50 3D spheroid cell viability. The method, then:
as §1

Assay [3] concerns BT-20. The assay is described as follows: 3D spheroid assay BT-20. Type of assay: cell-based. As to conditions: Homo sapiens, 96 h; BT-20, 4 days treatment; read-out: IC50 3D spheroid cell viability. As to the method: as §1
Assay [4] deals with 4T1. As to the kind of experiment: 3D spheroid assay 4T1. Type of assay: cell-based. The note with it: Mus musculus, 96 h; 4T1, 4 days treatment; read-out: IC50 3D spheroid cell viability. The method, then: as §1
Assay [5] concerns the target T1, ARK5(h) (Homo sapiens, UniProt O60285).
T1 construct: purchased Eurofins KinaseProfiler
T1 sequence (O60285 1-661): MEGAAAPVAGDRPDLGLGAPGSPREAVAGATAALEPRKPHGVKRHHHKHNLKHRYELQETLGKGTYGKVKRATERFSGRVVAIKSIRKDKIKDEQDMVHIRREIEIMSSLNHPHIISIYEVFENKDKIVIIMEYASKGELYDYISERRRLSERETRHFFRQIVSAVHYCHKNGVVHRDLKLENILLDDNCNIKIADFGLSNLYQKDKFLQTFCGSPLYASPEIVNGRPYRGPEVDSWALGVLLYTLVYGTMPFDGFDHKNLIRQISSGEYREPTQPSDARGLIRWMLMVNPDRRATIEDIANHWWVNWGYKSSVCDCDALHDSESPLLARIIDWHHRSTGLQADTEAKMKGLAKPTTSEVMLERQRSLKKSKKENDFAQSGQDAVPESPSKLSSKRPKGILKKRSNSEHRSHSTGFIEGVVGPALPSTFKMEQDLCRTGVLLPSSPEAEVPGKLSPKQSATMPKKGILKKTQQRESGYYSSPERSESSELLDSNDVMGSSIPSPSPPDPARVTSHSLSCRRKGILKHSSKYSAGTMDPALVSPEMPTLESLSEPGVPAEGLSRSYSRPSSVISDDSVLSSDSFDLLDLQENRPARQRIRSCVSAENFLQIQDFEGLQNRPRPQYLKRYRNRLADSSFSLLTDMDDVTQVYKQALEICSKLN
The assay is described as follows: Eurofins kinase profiling. As to conditions: read-out: residual kinase activity ARK5(h). Type of assay: biochemical. The method, boiled down: (§2)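 Single-point screen at 1 µM compound; radiometric read-out of kinase activity using radiolabeled phosphate, per standard KinaseProfiler protocol.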

Assay [6] deals with T2, CHK2(h) (Homo sapiens, UniProt O96017).
T2 construct: purchased Eurofins KinaseProfiler
T2 sequence (O96017 whole entry): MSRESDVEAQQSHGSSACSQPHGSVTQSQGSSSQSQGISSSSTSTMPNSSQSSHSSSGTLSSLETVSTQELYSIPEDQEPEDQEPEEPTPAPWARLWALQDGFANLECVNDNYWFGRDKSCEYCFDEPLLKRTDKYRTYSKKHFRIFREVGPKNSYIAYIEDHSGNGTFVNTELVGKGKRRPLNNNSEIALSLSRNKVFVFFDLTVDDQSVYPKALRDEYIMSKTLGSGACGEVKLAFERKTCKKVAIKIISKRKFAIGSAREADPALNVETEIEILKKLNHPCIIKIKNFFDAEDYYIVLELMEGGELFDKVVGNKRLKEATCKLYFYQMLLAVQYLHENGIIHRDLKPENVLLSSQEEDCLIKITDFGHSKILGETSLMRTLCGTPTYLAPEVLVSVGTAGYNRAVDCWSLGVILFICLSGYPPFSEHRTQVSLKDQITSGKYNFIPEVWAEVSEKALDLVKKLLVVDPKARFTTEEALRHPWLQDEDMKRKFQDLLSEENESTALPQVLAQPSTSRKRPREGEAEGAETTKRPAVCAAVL
The assay is described as follows: Eurofins kinase profiling. It is filed as biochemical. As to conditions: read-out: residual kinase activity CHK2(h). The essentials:
as §2

Assay [7] deals with T3, FGFR4(h) (Homo sapiens, UniProt P22455).
T3 construct: purchased Eurofins KinaseProfiler
T3 sequence (P22455 22-802): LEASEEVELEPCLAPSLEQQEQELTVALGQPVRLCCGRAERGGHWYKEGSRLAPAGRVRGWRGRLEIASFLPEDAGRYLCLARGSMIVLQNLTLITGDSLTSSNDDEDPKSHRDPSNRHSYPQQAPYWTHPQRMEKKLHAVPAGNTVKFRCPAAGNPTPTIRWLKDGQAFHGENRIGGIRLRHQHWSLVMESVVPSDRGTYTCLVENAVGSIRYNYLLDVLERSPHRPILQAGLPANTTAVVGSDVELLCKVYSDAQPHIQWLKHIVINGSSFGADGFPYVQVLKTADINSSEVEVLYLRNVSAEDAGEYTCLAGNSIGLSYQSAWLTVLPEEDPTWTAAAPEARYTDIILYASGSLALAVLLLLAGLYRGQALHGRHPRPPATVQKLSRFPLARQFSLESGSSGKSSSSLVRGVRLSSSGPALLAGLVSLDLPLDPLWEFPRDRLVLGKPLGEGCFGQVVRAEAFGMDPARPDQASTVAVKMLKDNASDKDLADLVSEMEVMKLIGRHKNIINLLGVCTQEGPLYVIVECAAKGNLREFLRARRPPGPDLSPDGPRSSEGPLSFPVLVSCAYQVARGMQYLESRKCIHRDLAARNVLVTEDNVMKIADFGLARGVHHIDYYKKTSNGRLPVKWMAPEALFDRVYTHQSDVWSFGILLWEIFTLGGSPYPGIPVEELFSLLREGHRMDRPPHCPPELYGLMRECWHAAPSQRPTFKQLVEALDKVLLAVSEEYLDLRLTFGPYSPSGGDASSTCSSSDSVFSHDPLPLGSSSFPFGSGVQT
As to the kind of experiment: Eurofins kinase profiling. As to conditions: read-out: residual kinase activity FGFR4(h). Type of assay: biochemical. The method, boiled down:
as §2

The target of assay [8] is T4, PAK1(h) (Homo sapiens, UniProt Q13153).
T4 construct: purchased Eurofins KinaseProfiler
T4 sequence (Q13153 whole entry): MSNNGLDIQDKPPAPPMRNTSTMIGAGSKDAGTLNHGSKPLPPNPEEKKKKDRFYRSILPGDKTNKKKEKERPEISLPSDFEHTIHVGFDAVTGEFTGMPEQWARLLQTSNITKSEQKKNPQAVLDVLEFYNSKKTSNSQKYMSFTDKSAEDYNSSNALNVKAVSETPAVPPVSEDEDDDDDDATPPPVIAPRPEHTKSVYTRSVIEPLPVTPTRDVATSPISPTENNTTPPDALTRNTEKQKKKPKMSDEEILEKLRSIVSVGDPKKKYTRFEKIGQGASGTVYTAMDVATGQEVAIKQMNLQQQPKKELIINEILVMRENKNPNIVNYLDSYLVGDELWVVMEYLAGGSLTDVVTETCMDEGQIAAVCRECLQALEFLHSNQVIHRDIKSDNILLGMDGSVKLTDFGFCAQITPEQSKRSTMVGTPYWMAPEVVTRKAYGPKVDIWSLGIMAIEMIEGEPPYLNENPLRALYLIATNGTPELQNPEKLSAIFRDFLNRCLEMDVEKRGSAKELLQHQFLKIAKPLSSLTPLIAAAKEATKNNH
The assay is described as follows: Eurofins kinase profiling. It is filed as biochemical. As to conditions: read-out: residual kinase activity PAK1(h). The essentials: as §2

The target in assay [9] is T5, PI3 Kinase (p110b/p85a)(h) (Homo sapiens, UniProt P42338).
T5 construct: purchased Eurofins KinaseProfiler
As to the kind of experiment: Eurofins kinase profiling. It is filed as biochemical. As to conditions: read-out: residual kinase activity PI3 Kinase (p110b/p85a)(h). The essentials:
as §2

The target in assay [10] is T6, PI3 Kinase (p110d/p85a)(h) (Homo sapiens, UniProt O00329).
T6 construct: purchased Eurofins KinaseProfiler
T6 sequence (O00329 whole entry): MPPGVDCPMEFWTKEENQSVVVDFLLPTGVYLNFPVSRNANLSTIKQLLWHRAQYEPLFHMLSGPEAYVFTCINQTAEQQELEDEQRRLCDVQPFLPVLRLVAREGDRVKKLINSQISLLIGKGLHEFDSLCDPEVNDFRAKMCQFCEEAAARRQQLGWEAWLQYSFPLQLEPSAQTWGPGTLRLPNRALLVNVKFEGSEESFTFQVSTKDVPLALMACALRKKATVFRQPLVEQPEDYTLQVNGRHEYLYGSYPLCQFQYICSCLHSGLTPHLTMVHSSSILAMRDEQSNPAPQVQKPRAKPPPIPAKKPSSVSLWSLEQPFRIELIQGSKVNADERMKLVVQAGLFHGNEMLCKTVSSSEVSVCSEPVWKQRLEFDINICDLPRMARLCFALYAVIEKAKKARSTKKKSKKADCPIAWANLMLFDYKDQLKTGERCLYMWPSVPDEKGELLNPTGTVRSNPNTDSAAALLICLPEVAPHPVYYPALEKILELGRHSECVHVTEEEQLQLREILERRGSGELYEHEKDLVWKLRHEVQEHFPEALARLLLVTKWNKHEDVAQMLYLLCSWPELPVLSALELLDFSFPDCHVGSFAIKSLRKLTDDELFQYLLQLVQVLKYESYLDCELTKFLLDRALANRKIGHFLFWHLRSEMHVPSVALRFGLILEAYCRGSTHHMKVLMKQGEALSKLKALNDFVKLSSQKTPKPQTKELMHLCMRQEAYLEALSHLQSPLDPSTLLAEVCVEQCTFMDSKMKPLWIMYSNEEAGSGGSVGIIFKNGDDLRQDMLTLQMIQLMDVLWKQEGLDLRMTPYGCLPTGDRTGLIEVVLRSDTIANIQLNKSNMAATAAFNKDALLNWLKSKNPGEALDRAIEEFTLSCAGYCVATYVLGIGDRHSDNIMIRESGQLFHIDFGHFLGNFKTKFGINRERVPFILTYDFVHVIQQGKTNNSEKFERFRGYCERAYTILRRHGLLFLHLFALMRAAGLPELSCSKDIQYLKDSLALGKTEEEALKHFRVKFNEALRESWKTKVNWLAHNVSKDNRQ
T6 sequence (P27986 whole entry partner): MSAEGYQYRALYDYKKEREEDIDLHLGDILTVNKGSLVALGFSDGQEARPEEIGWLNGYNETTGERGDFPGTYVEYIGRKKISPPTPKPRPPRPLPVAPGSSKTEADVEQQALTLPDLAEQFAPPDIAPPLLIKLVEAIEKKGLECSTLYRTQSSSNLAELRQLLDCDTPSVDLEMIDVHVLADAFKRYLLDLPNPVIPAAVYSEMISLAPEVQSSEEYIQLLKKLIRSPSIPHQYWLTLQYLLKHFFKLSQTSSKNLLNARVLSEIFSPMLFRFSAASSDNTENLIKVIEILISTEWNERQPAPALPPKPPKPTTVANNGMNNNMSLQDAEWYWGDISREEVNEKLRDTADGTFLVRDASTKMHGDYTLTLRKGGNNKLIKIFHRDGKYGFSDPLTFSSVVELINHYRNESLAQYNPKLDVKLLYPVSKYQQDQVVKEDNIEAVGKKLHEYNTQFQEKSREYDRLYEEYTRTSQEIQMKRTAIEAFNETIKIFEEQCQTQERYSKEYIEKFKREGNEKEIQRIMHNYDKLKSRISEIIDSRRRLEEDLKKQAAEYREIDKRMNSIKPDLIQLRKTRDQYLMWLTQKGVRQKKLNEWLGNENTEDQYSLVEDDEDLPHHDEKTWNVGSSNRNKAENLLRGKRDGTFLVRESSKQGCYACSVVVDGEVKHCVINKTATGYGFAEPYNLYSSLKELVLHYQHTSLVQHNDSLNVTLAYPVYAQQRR
The assay is described as follows: Eurofins kinase profiling. It is filed as biochemical. The note with it: read-out: residual kinase activity PI3 Kinase (p110d/p85a)(h). The method, boiled down: as §2

Assay [11] has as its target T7, PKD2(h) (Homo sapiens, UniProt Q9BZL6).
T7 construct: purchased Eurofins KinaseProfiler
T7 sequence (Q9BZL6 1-878): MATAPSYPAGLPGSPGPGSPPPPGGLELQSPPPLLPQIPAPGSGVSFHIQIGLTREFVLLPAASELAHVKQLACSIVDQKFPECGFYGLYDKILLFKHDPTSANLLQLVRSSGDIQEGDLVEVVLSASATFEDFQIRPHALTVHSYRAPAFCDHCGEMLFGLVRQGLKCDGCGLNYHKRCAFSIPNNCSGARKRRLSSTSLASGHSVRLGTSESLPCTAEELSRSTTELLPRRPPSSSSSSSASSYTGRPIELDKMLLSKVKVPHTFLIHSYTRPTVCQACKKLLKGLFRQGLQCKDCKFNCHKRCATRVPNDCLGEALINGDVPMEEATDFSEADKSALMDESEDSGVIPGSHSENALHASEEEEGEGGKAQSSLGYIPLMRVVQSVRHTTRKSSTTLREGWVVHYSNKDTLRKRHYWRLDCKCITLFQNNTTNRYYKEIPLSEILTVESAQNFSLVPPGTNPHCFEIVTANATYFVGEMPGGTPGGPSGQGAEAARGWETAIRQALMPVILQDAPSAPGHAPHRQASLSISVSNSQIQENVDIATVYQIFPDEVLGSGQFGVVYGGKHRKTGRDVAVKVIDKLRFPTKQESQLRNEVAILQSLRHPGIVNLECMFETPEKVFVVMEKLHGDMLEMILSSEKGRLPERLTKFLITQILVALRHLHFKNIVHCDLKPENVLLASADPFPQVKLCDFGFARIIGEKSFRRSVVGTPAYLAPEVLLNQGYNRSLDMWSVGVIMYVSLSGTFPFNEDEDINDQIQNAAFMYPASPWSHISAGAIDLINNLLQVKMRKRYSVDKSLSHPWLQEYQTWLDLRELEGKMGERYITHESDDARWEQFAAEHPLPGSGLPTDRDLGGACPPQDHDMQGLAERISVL
As to the kind of experiment: Eurofins kinase profiling. It is filed as biochemical. The note with it: read-out: residual kinase activity PKD2(h). The essentials: as §2

For assay [12], the target named is T8, ZIPK(h) (Homo sapiens, UniProt O43293).
T8 construct: purchased Eurofins KinaseProfiler
T8 sequence (O43293 whole entry): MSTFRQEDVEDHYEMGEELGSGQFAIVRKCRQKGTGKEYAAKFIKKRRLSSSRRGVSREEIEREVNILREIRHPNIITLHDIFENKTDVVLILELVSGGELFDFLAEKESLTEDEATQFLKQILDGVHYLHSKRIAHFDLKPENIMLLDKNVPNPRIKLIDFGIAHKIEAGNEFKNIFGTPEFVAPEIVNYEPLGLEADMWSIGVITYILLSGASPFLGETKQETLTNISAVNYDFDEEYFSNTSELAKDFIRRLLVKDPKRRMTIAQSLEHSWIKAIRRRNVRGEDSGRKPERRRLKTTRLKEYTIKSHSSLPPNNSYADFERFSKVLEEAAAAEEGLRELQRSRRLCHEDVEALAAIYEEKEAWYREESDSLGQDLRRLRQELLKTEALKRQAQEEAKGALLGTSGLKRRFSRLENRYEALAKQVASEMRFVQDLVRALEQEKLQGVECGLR
As to the kind of experiment: Eurofins kinase profiling. Type of assay: biochemical. The note with it: read-out: residual kinase activity ZIPK(h). The method, boiled down:
as §2

In assay [13] the target is T9, c-RAF(h) (Homo sapiens, UniProt P04049).
T9 construct: purchased Eurofins KinaseProfiler
T9 sequence (P04049 whole entry): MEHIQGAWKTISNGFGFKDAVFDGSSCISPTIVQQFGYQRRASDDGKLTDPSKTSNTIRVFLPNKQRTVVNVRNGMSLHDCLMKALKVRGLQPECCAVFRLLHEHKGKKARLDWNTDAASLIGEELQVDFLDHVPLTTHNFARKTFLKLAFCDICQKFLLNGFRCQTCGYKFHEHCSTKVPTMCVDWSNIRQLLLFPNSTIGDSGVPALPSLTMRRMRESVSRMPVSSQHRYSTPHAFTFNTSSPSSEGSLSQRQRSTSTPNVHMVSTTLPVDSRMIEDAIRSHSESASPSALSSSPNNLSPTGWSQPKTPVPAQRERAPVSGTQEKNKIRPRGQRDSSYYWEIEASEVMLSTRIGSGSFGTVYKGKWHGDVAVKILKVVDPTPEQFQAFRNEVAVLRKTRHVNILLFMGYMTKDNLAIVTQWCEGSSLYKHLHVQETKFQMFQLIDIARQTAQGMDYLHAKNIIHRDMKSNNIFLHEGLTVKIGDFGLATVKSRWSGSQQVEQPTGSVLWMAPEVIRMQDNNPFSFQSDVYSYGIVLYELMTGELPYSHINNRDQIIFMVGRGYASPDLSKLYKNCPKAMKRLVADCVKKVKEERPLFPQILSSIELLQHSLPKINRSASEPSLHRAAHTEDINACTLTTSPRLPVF
The assay is described as follows: Eurofins kinase profiling. It is filed as biochemical. As to conditions: read-out: residual kinase activity c-RAF(h). The method, boiled down: as §2

Take `CNC(=O)c1cccc(C)c1Nc1nc(Nc2ccc(N3CCN(C4C5CC6CC4CC(O)(C6)C5)CC3)cc2OC)ncc1C(F)(F)F` (stereo not drawn) [SJP1602, 2-((2-((4-(4-((2s,5r)-5-hydroxyadamantan-2-yl)piperazin-1-yl)-2-methoxyphenyl)amino)-5-(trifluoromethyl)pyrimidin-4-yl)amino)-N,3-dimethylbenzamide]: the half-inhibitory concentration (IC50) in assay [1] was found to be 742 nM; in assay [2], 1450 nM; in [3], 2530 nM; in assay [4], 184 nM. For the same compound, the remaining activity at 1 µM in assay [5] was 90%; in assay [6], 51%; in assay [7], 102%; in assay [8], 119%; in assay [9], 100%; in [10], 91%. Also, the remaining activity at 1 µM in assay [11] came out at 116%; in [12], 100%; in assay [13], 90%.

Turning to `CNC(=O)c1ccc(Nc2ncc(C(F)(F)F)c(NCc3nccnc3N(C)S(C)(=O)=O)n2)cc1` [VS-6063, Defactinib], the IC50 is 427 nM in assay [1], 8180 nM in [2], above 10000 nM in assay [3] and 1190 nM in [4]. Further, the remaining activity at 1 µM is 21% in [5]; 71% in assay [6]; 104% in [7]; 79% in [8]; 103% in assay [9]; 88% in assay [10]. Further, the values for the remaining activity at 1 µM in assay [11], in assay [12] and in assay [13] were 116%, 97% and 80%, respectively.

Take `CONC(=O)c1ccccc1Nc1cc(Nc2cc(C)nn2C(C)C)ncc1Cl` [GSK2256098]: the IC50 was 1120 nM in assay [1], above 10000 nM in assay [2], above 10000 nM in [3] and above 10000 nM in assay [4]. The remaining activity at 1 µM in [5] stood at 92%; in assay [6], 59%; in [7], 104%; in [8], 91%; in [9], 105%; in [10] it was 115%. Further, the remaining activity at 1 µM was found to be 90% in [11], 93% in [12] and 72% in assay [13].

The values are drawn from paper PMC10528299, “Targeting FAK/PYK2 with SJP1602 for Anti-Tumor Activity in Triple-Negative Breast Cancer” (Current Issues in Molecular Biology, 2023).
